Test results taken from patent US8106055B2, “Substituted amide compounds” (Gruenenthal GmbH, priority 2007, dated 2012).

Assays:
[1] = target: T1, human μ opiate receptor (Homo sapiens, UniProt P35372); assay: Affinity for the human μ opiate receptor ([3H]-naloxone displacement, CHO-K1 receptor membrane preparation, SPA); format: binding; settings: 1.5 h, Table 3, to be read in the same way as Table 1; test concentration 1 μM; read-out: μ
T1 construct: purchased PerkinElmer Life Sciences, Zaventem, Belgium RB-HOM; host or cells: CHO-K1 cells (membrane preparation)
T1 sequence (P35372 whole entry): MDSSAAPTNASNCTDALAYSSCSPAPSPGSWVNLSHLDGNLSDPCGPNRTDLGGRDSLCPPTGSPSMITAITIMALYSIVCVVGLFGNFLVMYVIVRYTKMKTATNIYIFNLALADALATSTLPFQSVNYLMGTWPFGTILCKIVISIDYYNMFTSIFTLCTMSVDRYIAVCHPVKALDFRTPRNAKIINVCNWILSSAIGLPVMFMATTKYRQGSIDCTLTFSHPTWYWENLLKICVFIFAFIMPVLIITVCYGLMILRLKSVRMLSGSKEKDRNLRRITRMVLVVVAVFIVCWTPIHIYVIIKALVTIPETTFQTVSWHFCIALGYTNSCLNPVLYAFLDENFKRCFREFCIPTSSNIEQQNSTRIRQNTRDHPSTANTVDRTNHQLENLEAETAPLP
Outline: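 Displacement of 1 nmol/l [3H]-naloxone measured by SPA counting after 90 min at room temperature, using human μ receptor CHO-K1 membrane preparation in Tris-HCl buffer with 0.06% BSA. Test substances at 1 μmol/l give % inhibition; dilution series yield IC50, then Ki (Cheng-Prusoff); non-specific binding with 100 μmol/l naloxone.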

[2] = target: T2, human bradykinin 1 receptor (B1R) (Homo sapiens, UniProt P46663); assay: Functional investigation on the human bradykinin 1 receptor (B1R), Ca2+ FLIPR assay in CHO K1 hB1R cells; format: cell-based; settings: CHO-K1, B1R antagonism human; test substance 10 μM; Ca2+ FLIPR, CHO K1 hB1R cells; read-out: B1R Ant. h [10 μM] % Inhibition
T2 construct: expressed in transfected cells; host or cells: CHO K1 cells
T2 sequence (P46663 1-353): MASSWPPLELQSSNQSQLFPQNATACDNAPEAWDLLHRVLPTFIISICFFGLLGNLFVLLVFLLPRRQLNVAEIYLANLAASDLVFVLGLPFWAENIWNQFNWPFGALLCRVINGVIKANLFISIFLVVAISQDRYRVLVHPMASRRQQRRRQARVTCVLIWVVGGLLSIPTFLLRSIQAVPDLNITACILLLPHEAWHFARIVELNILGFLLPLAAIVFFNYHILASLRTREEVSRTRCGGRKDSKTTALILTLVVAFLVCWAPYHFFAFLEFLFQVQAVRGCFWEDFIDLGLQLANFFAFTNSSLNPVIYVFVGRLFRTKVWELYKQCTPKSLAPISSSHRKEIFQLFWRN
Outline: (§1)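 Fluo-4 Ca2+ readout, peak fluorescence. Stable CHO K1 transfectants; compound pre-incubated 10-20 min, then EC80 agonist—Lys-Des-Arg9-BK for hB1R, Des-Arg9-BK for rB1R. % inhibition vs maximal inhibition; IC50 from multiple concentrations, duplicate/triplicate, ≥2 independent runs.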

[3] = target: T3, bradykinin 1 receptor (B1R) of the rat (Rattus norvegicus, UniProt P97583); assay: Functional investigation on the rat bradykinin 1 receptor (B1R), Ca2+ FLIPR assay in CHO K1 rB1R cells; format: cell-based; settings: CHO-K1, B1R antagonism rat; test substance 10 μM; Ca2+ FLIPR, CHO K1 rB1R cells; read-out: B1R Ant. r [10 μM] % Inhibition
T3 construct: expressed in transfected cells; host or cells: CHO K1 cells
T3 sequence (P97583 1-337): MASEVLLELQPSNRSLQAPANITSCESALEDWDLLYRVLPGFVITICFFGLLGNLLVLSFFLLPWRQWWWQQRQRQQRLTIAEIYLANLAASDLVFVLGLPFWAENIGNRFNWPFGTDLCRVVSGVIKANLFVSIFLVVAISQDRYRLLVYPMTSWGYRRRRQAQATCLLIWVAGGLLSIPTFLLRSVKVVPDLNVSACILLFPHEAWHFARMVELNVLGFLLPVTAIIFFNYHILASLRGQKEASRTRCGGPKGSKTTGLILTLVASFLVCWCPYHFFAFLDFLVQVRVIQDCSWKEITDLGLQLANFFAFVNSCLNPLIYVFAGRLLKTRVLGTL
Outline: as §1

Compound | inhibition at 1 µM [1] | inhibition at 10 µM [2] | inhibition at 10 µM [3]
CN(CCOCC(=O)NCC1CCC(C(CCc2ccccc2)N2CCCC2)CC1)S(=O)(=O)c1c(Cl)cccc1Cl (stereo not drawn) [Example 722, 2-(2-(2,6-dichloro-N-methylphenylsulfonamido)ethoxy)-N-((4-(3-phenyl-1-(pyrrolidin-1-yl)propyl)cyclohexyl)methyl)acetamide] | 32% | 101% | 89%
O=C(COC1CCN(S(=O)(=O)c2c(Cl)cc(Cl)cc2Cl)C1)NCC1CCC(C(CCc2ccccc2)N2CCCC2)CC1 (stereo not drawn) [Example 723, N-((4-(3-phenyl-1-(pyrrolidin-1-yl)propyl)cyclohexyl)methyl)-2-(1-(2,4,6-trichlorophenylsulfonyl)pyrrolidin-3-yloxy)acetamide] | 35% | 90% | 40%
COc1cc(C)c(S(=O)(=O)N2CCC(OCC(=O)NCC3CCC(C(c4ccccc4)N4CCOCC4)CC3)C2)c(C)c1 (stereo not drawn) [Example 724, 2-(1-(4-methoxy-2,6-dimethylphenylsulfonyl)pyrrolidin-3-yloxy)-N-((4-(morpholino(phenyl)methyl)cyclohexyl)methyl)acetamide] | 8% | 55% | 50%
COc1cc(C)c(S(=O)(=O)N2CCC(OCC(=O)NCC3CCC(C(CCc4ccccc4)N4CCOCC4)CC3)C2)c(C)c1 (stereo not drawn) [Example 725, 2-(1-(4-methoxy-2,6-dimethylphenylsulfonyl)pyrrolidin-3-yloxy)-N-((4-(1-morpholino-3-phenylpropyl)cyclohexyl)methyl)acetamide] | 10% | 96% | 63%
COc1cc(C)c(S(=O)(=O)N2CCC(OCC(=O)NCC3CCC(C(CCc4ccccc4)N4CCCC4)CC3)C2)c(C)c1 (stereo not drawn) [Example 726, 2-(1-(4-methoxy-2,6-dimethylphenylsulfonyl)pyrrolidin-3-yloxy)-N-((4-(3-phenyl-1-(pyrrolidin-1-yl)propyl)cyclohexyl)methyl)acetamide] | 23% | 103% | 94%
CN(CCOCC(=O)NCC1CCC(C(c2ccccc2)N2CCOCC2)CC1)S(=O)(=O)c1c(Cl)cc(C(F)(F)F)cc1Cl (stereo not drawn) [Example 727, 2-(2-(2,6-dichloro-N-methyl-4-(trifluoromethyl)phenylsulfonamido)ethoxy)-N-((4-(morpholino(phenyl)methyl)cyclohexyl)methyl)acetamide] | 10% | 16% | 29%
CN(CCOCC(=O)NCC1CCC(C(CCc2ccccc2)N2CCOCC2)CC1)S(=O)(=O)c1c(Cl)cc(C(F)(F)F)cc1Cl (stereo not drawn) [Example 728, 2-(2-(2,6-dichloro-N-methyl-4-(trifluoromethyl)phenylsulfonamido)ethoxy)-N-((4-(1-morpholino-3-phenylpropyl)cyclohexyl)methyl)acetamide] | 12% | -9% | 9%
O=C(COC1CCCN(S(=O)(=O)c2c(Cl)cc(Cl)cc2Cl)C1)NCC1CCC(C(CCc2ccccc2)N2CCCC2)CC1 (stereo not drawn) [Example 729, N-((4-(3-phenyl-1-(pyrrolidin-1-yl)propyl)cyclohexyl)methyl)-2-(1-(2,4,6-trichlorophenylsulfonyl)piperidin-3-yloxy)acetamide] | 79% | 92% | 22%
COc1cc(C)c(S(=O)(=O)N2CCCC(OCC(=O)NCC3CCC(C(c4ccccc4)N4CCOCC4)CC3)C2)c(C)c1 (stereo not drawn) [Example 730, 2-(1-(4-methoxy-2,6-dimethylphenylsulfonyl)piperidin-3-yloxy)-N-((4-(morpholino(phenyl)methyl)cyclohexyl)methyl)acetamide] | 11% | 46% | 38%
COc1cc(C)c(S(=O)(=O)N2CCCC(OCC(=O)NCC3CCC(C(CCc4ccccc4)N4CCCC4)CC3)C2)c(C)c1 (stereo not drawn) [Example 731, 2-(1-(4-methoxy-2,6-dimethylphenylsulfonyl)piperidin-3-yloxy)-N-((4-(3-phenyl-1-(pyrrolidin-1-yl)propyl)cyclohexyl)methyl)acetamide] | 49% | 101% | 80%
CN1CCN(C(c2ccccc2)C2CCC(NC(=O)COCC3CCCN3S(=O)(=O)c3c(Cl)cc(Cl)cc3Cl)CC2)CC1 (stereo not drawn) [Example 732, N-(4-((4-methylpiperazin-1-yl)(phenyl)methyl)cyclohexyl)-2-((1-(2,4,6-trichlorophenylsulfonyl)pyrrolidin-2-yl)methoxy)acetamide] | 61% | 100% | 84%
COc1cc(C)c(S(=O)(=O)N2CCCCC2COCC(=O)NC2CCC(C(CCc3ccccc3)N3CCOCC3)CC2)c(C)c1 (stereo not drawn) [Example 733, 2-((1-(4-methoxy-2,6-dimethylphenylsulfonyl)piperidin-2-yl)methoxy)-N-(4-(1-morpholino-3-phenylpropyl)cyclohexyl)acetamide] | 21% | 87% | 100%
COc1cc(C)c(S(=O)(=O)N2CCCCC2COCC(=O)NC2CCC(C(CCc3ccccc3)N3CCCCC3)CC2)c(C)c1 (stereo not drawn) [Example 734, 2-((1-(4-methoxy-2,6-dimethylphenylsulfonyl)piperidin-2-yl)methoxy)-N-(4-(3-phenyl-1-(piperidin-1-yl)propyl)cyclohexyl)acetamide] | 80% | 104% | 104%
COc1cc(C)c(S(=O)(=O)N2CCCCC2COCC(=O)NC2CCC(C(c3ccccc3)N3CCN(C)CC3)CC2)c(C)c1 (stereo not drawn) [Example 735, 2-((1-(4-methoxy-2,6-dimethylphenylsulfonyl)piperidin-2-yl)methoxy)-N-(4-((4-methylpiperazin-1-yl)(phenyl)methyl)cyclohexyl)acetamide] | 56% | 103% | 103%
COc1cc(C)c(S(=O)(=O)N2CCCCC2COCC(=O)NCC2CCC(C(CCc3ccccc3)N3CCCC3)CC2)c(C)c1 (stereo not drawn) [Example 736, 2-((1-(4-methoxy-2,6-dimethylphenylsulfonyl)piperidin-2-yl)methoxy)-N-((4-(3-phenyl-1-(pyrrolidin-1-yl)propyl)cyclohexyl)methyl)acetamide] | 34% | 103% | 102%
O=C(COCC1CCCCN1S(=O)(=O)c1c(Cl)cc(Cl)cc1Cl)NC1CCC(C(CCc2ccccc2)N2CCOCC2)CC1 (stereo not drawn) [Example 737, N-(4-(1-morpholino-3-phenylpropyl)cyclohexyl)-2-((1-(2,4,6-trichlorophenylsulfonyl)piperidin-2-yl)methoxy)acetamide] | 22% | 23% | 56%
O=C(COCC1CCCCN1S(=O)(=O)c1c(Cl)cc(Cl)cc1Cl)NC1CCC(C(CCc2ccccc2)N2CCCCC2)CC1 (stereo not drawn) [Example 738, N-(4-(3-phenyl-1-(piperidin-1-yl)propyl)cyclohexyl)-2-((1-(2,4,6-trichlorophenylsulfonyl)piperidin-2-yl)methoxy)acetamide] | 77% | 75% | 62%
CN1CCN(C(c2ccccc2)C2CCC(NC(=O)COCC3CCCCN3S(=O)(=O)c3c(Cl)cc(Cl)cc3Cl)CC2)CC1 (stereo not drawn) [Example 739, N-(4-((4-methylpiperazin-1-yl)(phenyl)methyl)cyclohexyl)-2-((1-(2,4,6-trichlorophenylsulfonyl)piperidin-2-yl)methoxy)acetamide] | 62% | 104% | 87%
COc1cc(C)c(S(=O)(=O)N2CCCC(COCC(=O)NC3CCC(C(CCc4ccccc4)N4CCCCC4)CC3)C2)c(C)c1 (stereo not drawn) [Example 740, 2-((1-(4-methoxy-2,6-dimethylphenylsulfonyl)piperidin-3-yl)methoxy)-N-(4-(3-phenyl-1-(piperidin-1-yl)propyl)cyclohexyl)acetamide] | 15% | 79% | 70%
